Assay results as given in the CheMixHub viscosity set.
Values joined by “and” are separate entries in the source; they are usually repeats but may differ in a detail not shown here. Identical values can stand only once.

Key:
[1] = xn = mol fraction of the nth substance listed

C=CC#N
Settings | viscosity
293.15 K, 101 kPa | 0.362 mPa·s
298.15 K, 101 kPa | 0.342 mPa·s
298.15 K, 101.33 kPa | 0.339 mPa·s
303.15 K, 101 kPa | 0.325 mPa·s
303.15 K, 101.3 kPa | 0.3111 mPa·s and 0.3111 mPa·s
303.15 K, 101.33 kPa | 0.324 mPa·s and 0.324 mPa·s and 0.326 mPa·s
307.4 K, 101.33 kPa | 0.76 mPa·s and 0.53 mPa·s and 0.584 mPa·s
308.15 K, 101 kPa | 0.3296 mPa·s
313.15 K, 101 kPa | 0.305 mPa·s
323.15 K, 101 kPa | 0.287 mPa·s

CC(C)(N)CO
viscosity
Settings | 298.15 K | 303.15 K | 308.15 K | 313.15 K | 318.15 K | 323.15 K
100 kPa | 132.3 mPa·s | 98.48 mPa·s | 69.98 mPa·s | 46.99 mPa·s | 32.2 mPa·s | 24.45 mPa·s
101 kPa | – | 89 mPa·s and 99.48 mPa·s | 60.8 mPa·s | 43.7 mPa·s and 47.25 mPa·s | 32.2 mPa·s | 23.05 mPa·s and 24.33 mPa·s

CC(CC(C)(C)C)CC(C)(C)C
viscosity [mPa·s]
Settings | 293.15 K | 298.15 K | 313.15 K | 323.15 K
101.33 kPa | – | 1.217 | – | –
102 kPa | 1.32 | – | 0.956 | 0.828

CC(CC(C)(C)C)CP(=O)([O-])CC(C)CC(C)(C)C.CCCCCCCCCCCCCC[P+](CCCCCC)(CCCCCC)CCCCCC
101 kPa
Settings | viscosity [mPa·s]
303.15 K | 757
313.15 K | 439
323.15 K | 264

CC1CCC(O)CC1 (stereo not given)
Settings | viscosity [mPa·s]
293.15 K, 101 kPa | 30.4

CCC(C)(C)O
viscosity
Settings | 298.15 K | 303.15 K | 308.15 K | 313.15 K | 318.15 K | 323.15 K
101 kPa | 3.506 mPa·s and 3.532 mPa·s and 4.413 mPa·s | – | – | – | 1.681 mPa·s | –
101.3 kPa | 3.52 mPa·s | 2.87 mPa·s | 2.37 mPa·s | 1.96 mPa·s | – | –
101.33 kPa | – | 2.854 mPa·s | – | 1.976 mPa·s | – | 1.416 mPa·s

CCCCC(C)CC (stereo not given)
100 kPa
Settings | viscosity [mPa·s]
293.15 K | 0.512
298.15 K | 0.485
303.15 K | 0.462
308.15 K | 0.44
313.15 K | 0.422

CCCCC(C)O (stereo not given)
viscosity
Settings | 298.15 K | 303.15 K | 308.15 K | 313.15 K | 318.15 K
100 kPa | – | 3.29 mPa·s | 2.71 mPa·s | 2.28 mPa·s | 1.93 mPa·s
101.33 kPa | 4.047 mPa·s and 4.047 mPa·s | – | – | – | –

CCCCCCCCCCCCCCCCCC[P+](CCCC)(CCCC)CCCC.N#Cc1ccc[n-]1
100 kPa
Settings | viscosity [mPa·s]
293.15 K | 742
298.15 K | 519
303.15 K | 379
313.15 K | 208

CCCCCCc1ccccc1
Settings | viscosity [mPa·s]
303.15 K, 102 kPa | 1.4

CCCCN(CCCC)CCCC
viscosity
Settings | 293.15 K | 298.15 K | 303.15 K | 308.15 K | 313.15 K | 318.15 K | 323.15 K
100 kPa | – | – | 1.14 mPa·s and 1 mPa·s | 1.09 mPa·s | – | – | –
101 kPa | – | 1.273 mPa·s | 1.157 mPa·s and 1.155 mPa·s | 1.064 mPa·s and 1.069 mPa·s | 0.9845 mPa·s and 1 mPa·s | 0.9086 mPa·s | 0.8422 mPa·s
101.3 kPa | – | – | – | – | 0.9974 mPa·s | – | –
101.33 kPa | 1.45 mPa·s | 1.28 mPa·s | – | 1.07 mPa·s | 0.99 mPa·s | – | 0.863 mPa·s

CCCCOC(=O)c1ccccc1C(=O)OCCCC
Settings | viscosity [mPa·s]
303.15 K, 101.33 kPa | 13.33

CCCC[P+](CC)(CC)CC.N#Cc1ccc[n-]1
100 kPa
Settings | viscosity [mPa·s]
293.15 K | 187
298.15 K | 137
303.15 K | 104
313.15 K | 62

CC[N+](C)(CC)CCOC.O=S(=O)([N-]S(=O)(=O)C(F)(F)F)C(F)(F)F
101 kPa
Settings | viscosity [mPa·s]
293.15 K | 162.2
298.15 K | 119.2
303.15 K | 89.7
308.15 K | 67.72
313.15 K | 53.02
318.15 K | 40.98
323.15 K | 33.06

CC[n+]1cc[nH]c1.O=S(=O)([N-]S(=O)(=O)C(F)(F)F)C(F)(F)F
Settings | viscosity [mPa·s]
297.55 K, 101 kPa | 57.1

CN(C)c1ccccc1
viscosity
Settings | 100 kPa | 101 kPa | 101.3 kPa
293.15 K | 1.415 mPa·s | – | –
298 K | – | 1.283 mPa·s | 1.282 mPa·s
298.15 K | 1.302 mPa·s | – | –
303 K | – | 1.18 mPa·s | 1.177 mPa·s
303.15 K | 1.206 mPa·s | 1.18 mPa·s and 1.177 mPa·s and 1.203 mPa·s | –
308 K | – | 1.096 mPa·s | 1.1 mPa·s
308.15 K | 1.123 mPa·s | – | –
313 K | – | 1.02 mPa·s | 1.02 mPa·s
313.15 K | 1.056 mPa·s | – | –
313.35 K | – | 1.021 mPa·s | –
318 K | – | 0.968 mPa·s | 0.967 mPa·s
318.15 K | 0.9805 mPa·s | 0.931 mPa·s and 0.8294 mPa·s and 0.9484 mPa·s | –
323.15 K | 0.9197 mPa·s | 0.854 mPa·s | –

COC(C)OC
Settings | viscosity [mPa·s]
298.15 K, 101 kPa | 4.04

Cc1ccc(C(C)C)cc1
Settings | viscosity [mPa·s]
293.15 K, 101 kPa | 0.826

Cn1ccnc1
viscosity
Settings | 298.15 K | 308.15 K | 318.15 K
100 kPa | 1.778 mPa·s and 1.778 mPa·s | 1.482 mPa·s and 1.482 mPa·s | 1.267 mPa·s and 1.267 mPa·s
101 kPa | 1.68 mPa·s | 1.382 mPa·s and 1.415 mPa·s | 1.213 mPa·s

FC(F)(F)c1ccccc1
viscosity [mPa·s]
Settings | 298.15 K | 323.15 K
101 kPa | 0.53 | 0.46
101.33 kPa | 0.5524 | –

O=C1CCCCCO1
101 kPa
Settings | viscosity [mPa·s]
303.15 K | 4.885
308.15 K | 4.324
313.15 K | 3.818
318.15 K | 3.42

[2H]O[2H]
101 kPa
Settings | viscosity
293.15 K | 1.253 mPa·s
297.15 K | 1.128 mPa·s
299.15 K | 1.072 mPa·s
300.15 K | 0.994 mPa·s and 1.05 mPa·s
301.15 K | 1.026 mPa·s
302.15 K | 1 mPa·s
303.1 K | 0.973 mPa·s
303.15 K | 0.981 mPa·s
304.15 K | 0.964 mPa·s
305.15 K | 0.884 mPa·s and 0.942 mPa·s
306.15 K | 0.924 mPa·s
307.15 K | 0.901 mPa·s
308.15 K | 0.879 mPa·s
309.15 K | 0.861 mPa·s
310.15 K | 0.842 mPa·s
311.15 K | 0.826 mPa·s
312.15 K | 0.809 mPa·s
313.1 K | 0.785 mPa·s
313.15 K | 0.791 mPa·s
323.1 K | 0.649 mPa·s

[2H]O[2H] + [Cl-].[K+]
viscosity [mPa·s], [1], 101 kPa
Settings | x2 = 0.005 | x2 = 0.01 | x2 = 0.022 | x2 = 0.04 | x2 = 0.064
298.15 K | 1.095 | 1.08 | 1.076 | 1.089 | 1.101
308.15 K | 0.868 | 0.859 | 0.871 | 0.889 | 0.912
318.15 K | 0.714 | 0.709 | 0.732 | 0.755 | 0.784

[2H]O[2H] + [Cl-].[Li+]
viscosity [mPa·s], [1], 101 kPa
Settings | x2 = 0.024 | x2 = 0.076 | x2 = 0.141 | x2 = 0.197 | x2 = 0.215
298.15 K | – | 1.712 | 3.692 | – | 8.914
308.15 K | 1.039 | 1.351 | 3.018 | – | 6.744
318.15 K | 0.854 | 1.112 | 2.397 | 4.216 | 5.422

C=CC#N + c1ccccc1
[1], 307.4 K, 101.33 kPa
Settings | viscosity [mPa·s]
x2 = 0.0966 | 0.494
x2 = 0.2512 | 0.448
x2 = 0.4788 | 0.395
x2 = 0.5188 | 0.386
x2 = 0.6633 | 0.357
x2 = 0.8844 | 0.32

CC1CCC(O)CC1 (stereo not given) + c1ccccc1
[1], 293.15 K, 101 kPa
Settings | viscosity [mPa·s]
x2 = 0.33 | 5.3
x2 = 0.5 | 2.4
x2 = 0.6 | 1.8
x2 = 0.667 | 1.6
x2 = 0.75 | 1.4
x2 = 0.8 | 1.3
